Source: patent publication US7211574B2, “Selective D1/D5 receptor antagonists for the treatment of obesity and CNS disorders” (Schering Corporation, priority 2002, dated 2007)
Where two headings read alike, the source gives them in different places.

Columns and labels:
human D1 receptor = molecular target: T1, human D1 receptor (Homo sapiens, UniProt P21728); test: radioligand binding competition assay, D1
T1 construct: expressed in transfected cells; host or cells: Ltk- cells (mouse fibroblast line), membrane preparation
T1 sequence (P21728 whole entry): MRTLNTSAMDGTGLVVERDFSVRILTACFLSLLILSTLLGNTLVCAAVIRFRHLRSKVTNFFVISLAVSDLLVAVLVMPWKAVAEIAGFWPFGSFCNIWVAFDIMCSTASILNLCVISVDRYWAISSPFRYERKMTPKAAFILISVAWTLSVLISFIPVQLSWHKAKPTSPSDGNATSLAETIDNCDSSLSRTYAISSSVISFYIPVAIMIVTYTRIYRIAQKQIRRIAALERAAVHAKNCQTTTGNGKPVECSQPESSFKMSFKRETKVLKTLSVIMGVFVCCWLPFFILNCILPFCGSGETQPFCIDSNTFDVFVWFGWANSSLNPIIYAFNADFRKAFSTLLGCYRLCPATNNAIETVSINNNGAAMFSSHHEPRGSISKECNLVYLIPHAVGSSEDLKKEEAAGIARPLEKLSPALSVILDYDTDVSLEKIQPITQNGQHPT
Description: (§1) Affinity values (Ki) of compounds at human D1 and D2 receptors were ascertained using radioligand binding competition assays. Ltk- cells expressing D1 and D2 (long variant) receptors were lysed in hypotonic buffer for membrane preparation. Membranes were incubated with various concentrations of test compound and 1 nM [3H] of a compound of formula III and 0.2 nM [3H] Methylspiperone for D1 and D2 assays, respectively. Non-specific binding was defined as binding in the presence of 10 micromolar of a compound of formula III for D1 assays and 10 micromolar butaclamol for […]. Following incubation to equilibrium (1 hour at room temperature), bound radioligand was separated from free by rapid filtration. Bound radioactivity on the dried filters was quantified by liquid scintillation counting.

[1] = molecular target: T2, human D2 (long variant) receptor (Homo sapiens, UniProt P14416); test: radioligand binding competition assay, D2; settings: membranes of Ltk- cells expressing D2 (long variant); 0.2 nM [3H] Methylspiperone; 1 hour at room temperature
T2 construct: expressed in transfected cells; host or cells: Ltk- cells (mouse fibroblast line), membrane preparation
Description: as §1

[2] = membranes of Ltk- cells expressing D1, 1 nM [3H] compound of formula III, 1 hour at room temperature, read-out: D1 (Ki)

Structure (SMILES)	Ki (human D1 receptor; [2]) [nM]	Ki [1] [nM]	Ki (human D1 receptor) [nM]
CN1CCc2cc(Cl)c3[nH]c(=O)[nH]c3c2[C@H]2c3cccc(Br)c3CC[C@@H]21 [Compound 16C]	6.1	172	–
CN1CCc2cc(Cl)c3[nH]c(=O)sc3c2[C@H]2c3ccccc3CC[C@@H]21 [Compound 25A]	–	257	2.1
Clc1cc2c(c3cn[nH]c13)[C@@H](c1ccccc1)CNCC2 [Compound 6]	183	5010	–
CN1CCc2cc(Cl)c3[nH]c(=S)[nH]c3c2[C@@H](c2ccccc2)C1 [Compound 17B]	1790	–	–
CN1CCc2cc(Cl)c3[nH]cnc3c2[C@H]2c3ccccc3CC[C@@H]21 [Compound 13A]	248	984	–
Oc1nc2c(Cl)cc3c(c2[nH]1)[C@H]1c2ccccc2CC[C@@H]1NCC3 [Compound 18A]	–	3270	16.5
CN1CCc2cc(Cl)c3[nH]c(O)nc3c2[C@@H](c2ccccc2)C1 [Compound 16B]	350	–	–
CN1CCc2cc(Cl)c3[nH]nnc3c2[C@H]2c3ccccc3CC[C@@H]21 [Compound 15A]	146	1530	–
CN1CCc2cc(Cl)c3[nH]c(=O)[nH]c3c2[C@H]2c3cccc(-c4ccccc4)c3CC[C@@H]21 [Compound 27]	1.9	336	–
CN1CCc2cc(Cl)c3[nH]c(O)nc3c2[C@H]2c3ccccc3CC[C@@H]21 [Compound 16A]	–	1020	7
CN1CCc2cc(Cl)c3[nH]c(=S)[nH]c3c2[C@H]2c3ccccc3CC[C@@H]21 [Compound 17A]	–	1040	40
Cc1cc2c3c(cc(Cl)c2[nH]1)CCN(C)[C@H]1CCc2ccccc2[C@H]31 [Compound 8]	–	232	24.7
O=c1[nH]c2c(Cl)cc3c(c2s1)[C@H]1c2ccccc2CC[C@@H]1NCC3 [Compound 26A]	–	661	6.5
CN1CCc2cc(Cl)c3[nH]ncc3c2[C@@H](c2ccccc2)C1 [Compound 4]	14	3550	–

Second part, led by results:

Ki (human D1 receptor; [2]) [nM]	Structure (SMILES)	Ki [1] [nM]	Ki (human D1 receptor) [nM]
115	CN1CCc2cc(Cl)c3nc(O)sc3c2[C@@H](c2ccccc2)C1 [Compound 25B]	2890	–
1900	Oc1nc2c(Cl)cc3c(c2[nH]1)[C@@H](c1ccccc1)CNCC3 [Compound 18B]	–	–
1080	O=c1[nH]c2c(Cl)cc3c(c2s1)[C@@H](c1ccccc1)CNCC3 [Compound 26B]	3200	–
11.3	O=c1[nH]c2c(Cl)cc3c(c2[nH]1)[C@H]1c2cccc(Br)c2CC[C@@H]1NCC3 [Compound 18C]	648	–
